Results taken from PubChem BioAssay (NCI).
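Following 48 hours of exposure in 96-well plates, responses at five concentrations were used to interpolate endpoints linearly. Definition used: TGI = concentration required for complete inhibition of growth.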

What was measured:
Experiment in all cases: NCI tumour cell line growth inhibition, 48 h
[1] = system: SW-620 colon
[2] = system: UO-31 renal
[3] = system: MOLT-4 leukemia
[4] = system: UACC-257 melanoma
[5] = system: ACHN renal
[6] = system: RXF-631 renal
[7] = system: XF 498 CNS
[8] = system: SN12C renal
[9] = system: OVCAR-5 ovarian
[10] = system: KM12 colon
[11] = system: IGROV1 ovarian
[12] = system: HCT-116 colon
[13] = system: KM20L2 colon
[14] = system: SF-539 CNS
[15] = system: HOP-92 NSCLC
[16] = system: HL-60(TB) leukemia
[17] = system: CAKI-1 renal
[18] = system: SK-OV-3 ovarian
[19] = system: UACC-62 melanoma
[20] = system: SK-MEL-2 melanoma
[21] = system: OVCAR-8 ovarian
[22] = system: SR leukemia
[23] = system: NCI-H226 lung
[24] = system: HT29 colon
[25] = system: NCI-H460 lung
[26] = system: OVCAR-3 ovarian
[27] = system: NCI-H23 lung
[28] = system: HCC-2998 colon
[29] = system: MALME-3M melanoma
[30] = system: SNB-19 CNS
[31] = system: SNB-75 CNS
[32] = system: M19-MEL melanoma
[33] = system: SF-268 CNS
[34] = system: DMS 273 small cell lung
[35] = system: K-562 leukemia
[36] = system: U251 CNS
[37] = system: DLD-1 colon
[38] = system: SK-MEL-28 melanoma
[39] = system: LOX IMVI melanoma
[40] = system: NCI-H522 lung
[41] = system: COLO 205 colon
[42] = system: RPMI-8226 leukemia
[43] = system: OVCAR-4 ovarian
[44] = system: A549 NSCLC
[45] = system: M14 melanoma
[46] = system: HCT-15 colon
[47] = system: HOP-62 NSCLC
[48] = system: LXFL 529 NSCLC
[49] = system: TK-10 renal
[50] = system: SF-295 CNS
[51] = system: 786-0 renal
[52] = system: DMS 114 small cell lung
[53] = system: A498 renal
[54] = system: HOP-18 NSCLC
[55] = system: SNB-78 CNS
[56] = system: EKVX NSCLC
[57] = system: SK-MEL-5 melanoma
[58] = system: CCRF-CEM leukemia

SMILES: Clc1ccc(OCc2nnc3n2N=C(c2ccccc2)CS3)cc1
- TGI [1]: 32.9 µM
- TGI [2]: 20.8 µM
- TGI [3]: 62.5 µM
- TGI [4]: 29.3 µM
- TGI [5]: 37.5 µM
- TGI [6]: 31.1 µM
- TGI [7]: 30.9 µM
- TGI [8]: 25.8 µM
- TGI [9]: 36.1 µM
- TGI [10]: 31.6 µM
- TGI [11]: 23.5 µM
- TGI [12]: 23.3 µM
- TGI [13]: 30.6 µM
- TGI [14]: 33.3 µM
- TGI [15]: 36.7 µM
- TGI [16]: 30.4 µM
- TGI [17]: 61.8 µM
- TGI [18]: 44.7 µM
- TGI [19]: 28.4 µM
- TGI [20]: 34.4 µM
- TGI [21]: 27.3 µM
- TGI [22]: 29.5 µM
- TGI [23]: 39.9 µM
- TGI [24]: 29.8 µM
- TGI [25]: 30.5 µM
- TGI [26]: 32.4 µM
- TGI [27]: 25.2 µM
- TGI [28]: 32.1 µM
- TGI [29]: 34.5 µM
- TGI [30]: 46.3 µM
- TGI [31]: 85.7 µM
- TGI [32]: 33.1 µM
- TGI [33]: 39.9 µM
- TGI [34]: 30.5 µM
- TGI [35]: 42.8 µM
- TGI [36]: 31.9 µM
- TGI [37]: 44 µM
- TGI [38]: 38.2 µM
- TGI [39]: 30.8 µM
- TGI [40]: 36.5 µM
- TGI [41]: 30.8 µM
- TGI [42]: 32.7 µM
- TGI [43]: 30.6 µM
- TGI [44]: 35.1 µM
- TGI [45]: 41 µM
- TGI [46]: 31 µM
- TGI [47]: 34.8 µM
- TGI [48]: 40.7 µM
- TGI [49]: 53.4 µM
- TGI [50]: 36.7 µM
- TGI [51]: 30.2 µM

SMILES: Nc1ncnc2c1ncn2C1OC(CSC(F)F)C(O)C1O (stereo unspecified)
- TGI [1]: > 100 µM
- TGI [2]: > 100 µM
- TGI [3]: > 100 µM
- TGI [52]: > 100 µM
- TGI [4]: > 100 µM
- TGI [5]: > 100 µM
- TGI [6]: > 100 µM
- TGI [53]: > 100 µM
- TGI [8]: > 100 µM
- TGI [9]: > 100 µM
- TGI [10]: > 100 µM
- TGI [11]: > 100 µM
- TGI [12]: > 100 µM
- TGI [13]: > 100 µM
- TGI [14]: > 100 µM
- TGI [15]: > 100 µM
- TGI [16]: > 100 µM
- TGI [17]: > 100 µM
- TGI [54]: > 100 µM
- TGI [18]: > 100 µM
- TGI [19]: > 100 µM
- TGI [20]: > 100 µM
- TGI [21]: > 100 µM
- TGI [55]: > 100 µM
- TGI [56]: > 100 µM
- TGI [23]: > 100 µM
- TGI [24]: > 100 µM
- TGI [25]: > 100 µM
- TGI [26]: > 100 µM
- TGI [57]: > 100 µM
- TGI [27]: > 100 µM
- TGI [28]: > 100 µM
- TGI [29]: > 100 µM
- TGI [31]: > 100 µM
- TGI [33]: > 100 µM
- TGI [34]: > 100 µM
- TGI [35]: > 100 µM
- TGI [36]: > 100 µM
- TGI [37]: > 100 µM
- TGI [38]: > 100 µM
- TGI [39]: > 100 µM
- TGI [40]: > 100 µM
- TGI [41]: > 100 µM
- TGI [42]: > 100 µM
- TGI [43]: > 100 µM
- TGI [44]: > 100 µM
- TGI [45]: > 100 µM
- TGI [58]: > 100 µM
- TGI [46]: > 100 µM
- TGI [47]: > 100 µM
- TGI [48]: > 100 µM
- TGI [49]: > 100 µM
- TGI [50]: > 100 µM
- TGI [51]: > 100 µM

SMILES: CC(C)c1ccccc1NC(=O)CCC(=O)NN
- TGI [1]: > 100 µM
- TGI [2]: > 100 µM
- TGI [3]: > 100 µM
- TGI [4]: > 100 µM
- TGI [5]: > 100 µM
- TGI [6]: > 100 µM
- TGI [7]: > 100 µM
- TGI [8]: > 100 µM
- TGI [10]: > 100 µM
- TGI [11]: > 100 µM
- TGI [12]: > 100 µM
- TGI [13]: > 100 µM
- TGI [14]: > 100 µM
- TGI [15]: > 100 µM
- TGI [16]: > 100 µM
- TGI [17]: > 100 µM
- TGI [18]: > 100 µM
- TGI [19]: > 100 µM
- TGI [20]: > 100 µM
- TGI [22]: > 100 µM
- TGI [55]: > 100 µM
- TGI [56]: > 100 µM
- TGI [23]: > 100 µM
- TGI [26]: > 100 µM
- TGI [27]: > 100 µM
- TGI [29]: > 100 µM
- TGI [30]: > 100 µM
- TGI [31]: > 100 µM
- TGI [32]: > 100 µM
- TGI [33]: > 100 µM
- TGI [34]: > 100 µM
- TGI [35]: > 100 µM
- TGI [36]: > 100 µM
- TGI [37]: > 100 µM
- TGI [38]: > 100 µM
- TGI [39]: > 100 µM
- TGI [40]: > 100 µM
- TGI [42]: > 100 µM
- TGI [44]: > 100 µM
- TGI [45]: > 100 µM
- TGI [58]: > 100 µM
- TGI [46]: > 100 µM
- TGI [48]: > 100 µM
- TGI [49]: > 100 µM
- TGI [50]: > 100 µM
- TGI [51]: > 100 µM
